Laboratory results published in patent US11179401B2, “Use of vanadium compounds for maintaining normaglycemia in a mammal” (CFM Pharma Holding BV, priority 2011, dated 2021).

Legend:
[1] = test system: male Wistar rats; test: Renal ischemia-reperfusion (I/R) in anesthetized rats with BMOV infusion; type: in vivo, rat
Description: Thirty two male Wistar rats (Harlan Netherlands BV, Horst, The Netherlands) with a mean body weight of 280±30 grams were used in this study. The animals were quarantined prior to start of the investigation for 1 week to permit acclimatization to their new environment and were housed in pairs in conventional cages in a light-controlled room kept at 22±1° C. with a relative humidity of 55±10%. All animals received standard laboratory rat chow and water for consumption ad libitum.
All animals were initially anesthetized with a mixture of ketamine (Nimatek, Eurovet Animal Health BV, Bladel, The Netherlands; 90 mg/kg), dexmedetomidine (Dexdomitor, Pfizer Animal Health BV, Capelle aan den IJssel, The Netherlands; 0.5 mg/kg), and atropine sulfate (Centrafarm BV, Etten-Leur, The Netherlands; 0.05 mg/kg) by intraperitoneal injection. Once anesthetized, the area between the thoracic manubrium and chin and the left flank covering the left kidney were shaved and cleaned prior to initiating the surgical procedure. During the remainder of the surgical preparation and experimental procedures, anesthesia was maintained via tracheotomy and mechanical ventilation with an inspired oxygen fraction (FiO2) of 0.4. Body temperature was maintained at 37±0.5° C. during the entire experiment. The ventilator settings were adjusted to maintain an arterial pCO2 between 35 and 40 MmHg.
For drug and fluid administration and hemodynamic monitoring, three vessels were cannulated with polyethylene catheters (outer diameter=0.9 mm; Braun, Melsungen, Germany). A catheter in the right carotid artery was connected to a pressure transducer to monitor arterial blood pressure and heart rate. The right jugular vein was cannulated for continuous infusion of Ringer's lactate (Baxter, Utrecht, The Netherlands) at a rate of 15 ml/kg/hr. The femoral artery was cannulated for withdrawing blood samples for blood gas analysis. Animals were kept under general anesthesia during all experiments and received continuous intravenous diluted ketamine or analgesic drug infusions. The left kidney was exposed, decapsulated, and immobilized in a Lucite (i.e. poly (methyl methacrylate); PMMA) custom made kidney cup via a ˜4 cm incision on the left flank. The renal artery and vein were carefully separated to preserve the surrounding nerves and adrenal gland. A perivascular ultrasonic transient time flow probe (type 0.7 RB; Transonic Systems, Ithaca, N.Y., USA) was placed around the left renal artery and connected to a flow meter (T206; Transonic Systems, Ithaca, N.Y., USA) to allow continuous measurement of renal blood flow (RBF). The left ureter was isolated, ligated, and cannulated with a polyethylene catheter (outer diameter=0.9 mm; Braun, Melsungen, Germany) for urine collection. A small piece of aluminum foil (10×10 mm) was placed on the dorsal site of the renal vein to prevent contribution of juxtaposed and underlying tissues from interfering with the phosphorescence signal in the venous pO2 measurement. After the surgical protocol (˜60 min), one optical fiber was placed 1 mm above the decapsulated kidney and another optical fiber 1 mm above the renal vein to measure oxygenation using a phosphorescence lifetime technique (20). Oxyphor G2 (Oxygen Enterprises, Philadelphia, Pa., USA; 6 mg/kg) was subsequently infused intravenously for 5 min, followed by 30 min of stabilization time.
The operation field was covered with a humidified gauze compress throughout the entire experiment to prevent drying of the exposed tissues in the surgical field. The phosphorescence lifetime measurements have been described in more details elsewhere (20). The experiment was terminated by infusion of 1 ml of 3 M potassium chloride. Finally, the kidney was removed, weighed, and processed for histological evaluation. The correct placements of the catheters were also checked postmortem. […]

[2] = test system: critically ill patients; conditions: intensive insulin therapy, cited from earlier work
[3] = BMOV 7 and 15 mg/kg infusion, 30 min ischemia, 90 min reperfusion, effect not dose-dependent
[4] = high dose BMOV (15 mg/kg) compared to low dose (7 mg/kg)
[5] = kidney immunohistochemistry after 30 min ischemia, 90 min reperfusion, vs I/R control, dose-dependent

Row | Compound | mean arterial pressure [1, 3] | microvascular oxygenation in the renal cortex [1, 3] | microvascular oxygenation in the renal medulla [1, 3] | renal blood flow [1, 3] | renal oxygen delivery [1, 3] | renal oxygen utilization efficiency (VO2/Tna+) [1, 3] | renal hemodynamics ([1]; FIG. 2, 30 min ischemia, 90 min reperfusion) | NGAL levels [1, 4] | iNOS expression [1, 4] | inflammatory activation (IL-6, iNOS expression, MPO-stained leukocytes) [1, 5] | renal injury (biomarkers NGAL, L-FABP) [1, 5] | overall ICU mortality ([2]; reduced from 8%) | ICU mortality among patients requiring more than five days intensive care ([2]; reduced from 20.2%)
1 | Cc1occc(=O)c1[O-].Cc1occc(=O)c1[O-].[O]=[V+2] [BMOV, bis(maltolato)oxovanadium(IV)] | did not affect | significantly increased | significantly increased | did not affect | did not affect | increased | did not affect | significantly lower | significantly lower | significantly decreased | significantly decreased | – | –
2 | insulin: intensive insulin therapy in critically ill ICU patients, literature | – | – | – | – | – | – | – | – | – | – | – | 4.6% | 10.6%
